Legend:
Format in all cases: in vivo
corn (Zea mays) = experiment: Test A pre-/postemergence plant response
Method in brief: (§1)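 Formulated test chemicals (non-phytotoxic solvent, surfactant) were sprayed onto soil right after planting and simultaneously onto young plants at one to two leaves, 2 to 10 cm tall. Plants stayed in the greenhouse about ten days; injury was then visually scored against untreated controls, from 0 (no effect) to 100 (complete control).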

[1] = system: wheat (Triticum aestivum); experiment: Test A pre-/postemergence plant response; conditions: for Wheat plant response rating: visual injury, 0 to 100 scale (0 no effect, 100 complete control)
Method in brief: as §1

[2] = system: giant foxtail (Setaria faberii); experiment: Test A pre-/postemergence plant response
Method in brief: as §1

[3] = system: barnyardgrass (Echinochloa crus-galli); experiment: Test A pre-/postemergence plant response
Method in brief: as §1

[4] = system: velvetleaf (Abutilon theophrasti); experiment: Test A pre-/postemergence plant response; conditions: for Velvetleaf plant response rating: visual injury, 0 to 100 scale (0 no effect, 100 complete control)
Method in brief: as §1

[5] = system: large crabgrass (Digitaria sanguinalis); experiment: Test A pre-/postemergence plant response
Method in brief: as §1

[6] = system: morningglory (Ipomoea spp.); experiment: Test A pre-/postemergence plant response
Method in brief: as §1

[7] = system: pigweed (Amaranthus retroflexus); experiment: Test A pre-/postemergence plant response
Method in brief: as §1

[8] = system: canarygrass (Phalaris minor); experiment: Test B postemergence plant response; conditions: Postemergence
Method in brief: (§2)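 Plants grown in peat/vermiculite medium were sprayed postemergence at 2–18 cm height (1- to 4-leaf stage). After 13–15 days in the greenhouse, response was rated visually against untreated controls on a 0–100 scale (0 no effect, 100 complete control).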

[9] = system: windgrass (Apera spica-venti); experiment: Test B postemergence plant response; conditions: Postemergence
Method in brief: as §2

[10] = system: chickweed (Stellaria media); experiment: Test B postemergence plant response; conditions: Postemergence
Method in brief: as §2

[11] = system: winter barley (Hordeum vulgare); experiment: Test B postemergence plant response; conditions: for Barley plant response rating (0 to 100 scale): 62 g ai/ha, postemergence, 0 is no effect, 100 is complete control; for Plant response rating, Barley: Postemergence
Method in brief: as §2

[12] = Postemergence, 125 g ai/ha, 0 to 100 scale where 0 is no effect and 100 is complete control
[13] = Postemergence, 500 g ai/ha, 0 to 100 scale, 0 = no effect, 100 = complete control, approx. ten days
[14] = Preemergence, 125 g ai/ha, 0 to 100 scale, 0 = no effect, 100 = complete control
[15] = Preemergence, 500 g ai/ha, visual injury, 0 to 100 scale (0 no effect, 100 complete control), approx. ten days
[16] = Preemergence, 500 g ai/ha, 0 to 100 scale, 0 = no effect, 100 = complete control
[17] = 31 g ai/ha, 0 to 100 scale (0 no effect, 100 complete control)
[18] = 125 g ai/ha, scale 0 to 100 (0 no effect, 100 complete control)
[19] = 250 g ai/ha, scale 0 to 100 (0 no effect, 100 complete control), 13 to 15 days
[20] = Postemergence, 500 g ai/ha, visual injury, 0 to 100 scale (0 no effect, 100 complete control), approx. ten days
[21] = Postemergence, 500 g ai/ha, approx. ten days

Cc1ccc(F)cc1-n1c(-c2cccc(Cl)c2)ncc(C(=O)C2=C(O)CCCC2=O)c1=O [Compound 157]
Plant response rating, Corn (corn (Zea mays); [12]): 0 | Plant response rating, Corn (corn (Zea mays); [13]): 30 | Plant response rating, Corn (corn (Zea mays); [14]): 0 | Plant response rating, Corn (corn (Zea mays); [15]): 0 | Plant response rating, Wheat [1, 12]: 0 | Plant response rating, Wheat [1, 13]: 0 | Plant response rating, Wheat [1, 14]: 0 | Plant response rating, Wheat [1, 16]: 0 | Plant response rating, Foxtail, Giant [2, 12]: 90 | Plant response rating, Foxtail, Giant [2, 13]: 100 | Plant response rating, Foxtail, Giant [2, 14]: 10 | Plant response rating, Foxtail, Giant [2, 15]: 50 | Plant response rating, Barnyardgrass [3, 12]: 90 | Plant response rating, Barnyardgrass [3, 13]: 100 | Plant response rating, Barnyardgrass [3, 14]: 0 | Plant response rating, Barnyardgrass [3, 15]: 50 | Plant response rating, Velvetleaf [4, 12]: 100 | Plant response rating, Velvetleaf [4, 13]: 100 | Plant response rating, Velvetleaf [4, 14]: 60 | Plant response rating, Velvetleaf [4, 16]: 100 | Plant response rating, Crabgrass, Large [5, 12]: 80 | Plant response rating, Crabgrass, Large [5, 13]: 100 | Plant response rating, Crabgrass, Large [5, 14]: 20 | Plant response rating, Crabgrass, Large [5, 15]: 70 | Plant response rating, Morningglory [6, 12]: 10 | Plant response rating, Morningglory [6, 13]: 30 | Plant response rating, Morningglory [6, 14]: 0 | Plant response rating, Morningglory [6, 15]: 0 | Plant response rating, Pigweed [7, 12]: 90 | Plant response rating, Pigweed [7, 13]: 100 | Plant response rating, Pigweed [7, 14]: 0 | Plant response rating, Pigweed [7, 15]: 50 | Plant response rating, Canarygrass [8, 17]: 40 | Plant response rating, Canarygrass [8, 18]: 80 | Plant response rating, Canarygrass [8, 19]: 90 | Plant response rating, Windgrass [9, 17]: 60 | Plant response rating, Windgrass [9, 18]: 70 | Plant response rating, Windgrass [9, 19]: 80 | Plant response rating, Chickweed [10, 17]: 100 | Plant response rating, Chickweed [10, 18]: 100 | Plant response rating, Chickweed [10, 19]: 100 | Barley plant response rating (0 to 100 scale) ([11]; 13 to 15 days): 15 | Plant response rating, Barley [11, 17]: 5 | Plant response rating, Barley [11, 18]: 30 | Plant response rating, Barley [11, 19]: 30

Cc1ccccc1-n1c(-c2cc(F)cc(F)c2)ncc(C(=O)C2=C(O)CCCC2=O)c1=O [Compound 159]
Plant response rating, Corn (corn (Zea mays); [12]): 0 | Corn plant response rating (corn (Zea mays); [20]): 70 | Plant response rating, Corn (corn (Zea mays); [14]): 0 | Plant response rating, Corn (corn (Zea mays); [16]): 40 | Plant response rating, Wheat [1, 12]: 10 | Wheat plant response rating [1, 21]: 60 | Plant response rating, Wheat [1, 14]: 0 | Plant response rating, Wheat [1, 16]: 20 | Plant response rating, Foxtail, Giant [2, 12]: 90 | Foxtail, Giant plant response rating [2, 20]: 100 | Plant response rating, Foxtail, Giant [2, 14]: 60 | Plant response rating, Foxtail, Giant [2, 16]: 90 | Plant response rating, Barnyardgrass [3, 12]: 90 | Barnyardgrass plant response rating [3, 20]: 100 | Plant response rating, Barnyardgrass [3, 14]: 30 | Plant response rating, Barnyardgrass [3, 16]: 90 | Plant response rating, Velvetleaf [4, 12]: 100 | Velvetleaf plant response rating [4, 21]: 100 | Plant response rating, Velvetleaf [4, 14]: 70 | Plant response rating, Velvetleaf [4, 16]: 100 | Plant response rating, Crabgrass, Large [5, 12]: 90 | Crabgrass, Large plant response rating [5, 20]: 90 | Plant response rating, Crabgrass, Large [5, 14]: 80 | Plant response rating, Crabgrass, Large [5, 16]: 100 | Plant response rating, Morningglory [6, 12]: 100 | Morningglory plant response rating [6, 20]: 100 | Plant response rating, Morningglory [6, 14]: 0 | Plant response rating, Morningglory [6, 16]: 50 | Plant response rating, Pigweed [7, 12]: 100 | Pigweed plant response rating [7, 20]: 100 | Plant response rating, Pigweed [7, 14]: 100 | Plant response rating, Pigweed [7, 16]: 100 | Plant response rating, Canarygrass ([8]; 8 g ai/ha, 0 to 100 scale): 25 | Plant response rating, Canarygrass ([8]; 16 g ai/ha, 0 to 100 scale): 40 | Plant response rating, Canarygrass [8, 17]: 80 | Plant response rating, Windgrass ([9]; 8 g ai/ha, 0 to 100 scale): 10 | Plant response rating, Windgrass ([9]; 16 g ai/ha, 0 to 100 scale): 40 | Plant response rating, Windgrass [9, 17]: 45 | Plant response rating, Chickweed ([10]; 8 g ai/ha, 0 to 100 scale): 80 | Plant response rating, Chickweed ([10]; 16 g ai/ha, 0 to 100 scale): 100 | Plant response rating, Chickweed [10, 17]: 100 | Plant response rating, Barley ([11]; 8 g ai/ha, 0 to 100 scale): 0 | Plant response rating, Barley ([11]; 16 g ai/ha, 0 to 100 scale): 20 | Barley plant response rating (0 to 100 scale) ([11]; 13 to 15 days): 50 | Plant response rating, Barley [11, 17]: 20

O=C1CCCC(O)=C1C(=O)c1cnc(-c2ccccc2)n(C2CCSCC2)c1=O [Compound 164]
Plant response rating, Corn (corn (Zea mays); [12]): 10 | Corn plant response rating (corn (Zea mays); [20]): 50 | Plant response rating, Corn (corn (Zea mays); [14]): 0 | Plant response rating, Corn (corn (Zea mays); [16]): 0 | Plant response rating, Wheat [1, 12]: 0 | Wheat plant response rating [1, 21]: 20 | Plant response rating, Wheat [1, 14]: 0 | Plant response rating, Wheat [1, 16]: 0 | Plant response rating, Foxtail, Giant [2, 12]: 100 | Foxtail, Giant plant response rating [2, 20]: 100 | Plant response rating, Foxtail, Giant [2, 14]: 40 | Plant response rating, Foxtail, Giant [2, 16]: 70 | Plant response rating, Barnyardgrass [3, 12]: 100 | Barnyardgrass plant response rating [3, 20]: 100 | Plant response rating, Barnyardgrass [3, 14]: 10 | Plant response rating, Barnyardgrass [3, 16]: 80 | Plant response rating, Velvetleaf [4, 12]: 100 | Velvetleaf plant response rating [4, 21]: 100 | Plant response rating, Velvetleaf [4, 14]: 40 | Plant response rating, Velvetleaf [4, 16]: 70 | Plant response rating, Crabgrass, Large [5, 12]: 90 | Crabgrass, Large plant response rating [5, 20]: 100 | Plant response rating, Crabgrass, Large [5, 14]: 30 | Plant response rating, Crabgrass, Large [5, 16]: 90 | Plant response rating, Morningglory [6, 12]: 100 | Morningglory plant response rating [6, 20]: 100 | Plant response rating, Morningglory [6, 14]: 10 | Plant response rating, Morningglory [6, 16]: 50 | Plant response rating, Pigweed [7, 12]: 100 | Pigweed plant response rating [7, 20]: 100 | Plant response rating, Pigweed [7, 14]: 60 | Plant response rating, Pigweed [7, 16]: 100 | Plant response rating, Canarygrass [8, 17]: 40 | Plant response rating, Canarygrass [8, 18]: 90 | Plant response rating, Canarygrass [8, 19]: 98 | Plant response rating, Windgrass [9, 17]: 5 | Plant response rating, Windgrass [9, 18]: 75 | Plant response rating, Windgrass [9, 19]: 85 | Plant response rating, Chickweed [10, 17]: 80 | Plant response rating, Chickweed [10, 18]: 98 | Plant response rating, Chickweed [10, 19]: 100 | Barley plant response rating (0 to 100 scale) ([11]; 13 to 15 days): 5 | Plant response rating, Barley [11, 17]: 5 | Plant response rating, Barley [11, 18]: 30 | Plant response rating, Barley [11, 19]: 35

O=C1CCCC(O)=C1C(=O)c1cnc(-c2cc(F)cc(F)c2)n(C2CCCCC2)c1=O [Compound 181]
Plant response rating, Corn (corn (Zea mays); [12]): 10 | Corn plant response rating (corn (Zea mays); [20]): 50 | Plant response rating, Corn (corn (Zea mays); [14]): 0 | Plant response rating, Corn (corn (Zea mays); [16]): 0 | Plant response rating, Wheat [1, 12]: 30 | Wheat plant response rating [1, 21]: 60 | Plant response rating, Wheat [1, 14]: 0 | Plant response rating, Wheat [1, 16]: 20 | Plant response rating, Foxtail, Giant [2, 12]: 100 | Foxtail, Giant plant response rating [2, 20]: 100 | Plant response rating, Foxtail, Giant [2, 14]: 30 | Plant response rating, Foxtail, Giant [2, 16]: 80 | Plant response rating, Barnyardgrass [3, 12]: 100 | Barnyardgrass plant response rating [3, 20]: 100 | Plant response rating, Barnyardgrass [3, 14]: 20 | Plant response rating, Barnyardgrass [3, 16]: 100 | Plant response rating, Velvetleaf [4, 12]: 100 | Velvetleaf plant response rating [4, 21]: 100 | Plant response rating, Velvetleaf [4, 14]: 70 | Plant response rating, Velvetleaf [4, 16]: 100 | Plant response rating, Crabgrass, Large [5, 12]: 90 | Crabgrass, Large plant response rating [5, 20]: 90 | Plant response rating, Crabgrass, Large [5, 14]: 90 | Plant response rating, Crabgrass, Large [5, 16]: 100 | Plant response rating, Morningglory [6, 12]: 30 | Morningglory plant response rating [6, 20]: 100 | Plant response rating, Morningglory [6, 14]: 0 | Plant response rating, Morningglory [6, 16]: 30 | Plant response rating, Pigweed [7, 12]: 100 | Pigweed plant response rating [7, 20]: 100 | Plant response rating, Pigweed [7, 14]: 100 | Plant response rating, Pigweed [7, 16]: 100 | Plant response rating, Canarygrass [8, 17]: 50 | Plant response rating, Canarygrass [8, 18]: 85 | Plant response rating, Canarygrass [8, 19]: 90 | Plant response rating, Windgrass [9, 17]: 40 | Plant response rating, Windgrass [9, 18]: 60 | Plant response rating, Windgrass [9, 19]: 65 | Plant response rating, Chickweed [10, 17]: 100 | Plant response rating, Chickweed [10, 18]: 100 | Plant response rating, Chickweed [10, 19]: 100 | Barley plant response rating (0 to 100 scale) ([11]; 13 to 15 days): 40 | Plant response rating, Barley [11, 17]: 5 | Plant response rating, Barley [11, 18]: 50 | Plant response rating, Barley [11, 19]: 55

From patent US8952024B2, “Herbicidal pyrimidone derivatives” (E I du Pont de Nemours and Company, priority 2009, dated 2015)
